In patent US9957274B2, “Indane inhibitors of EED and methods of their use” (AbbVie Inc., priority 2016, dated 2018):

How the values were obtained:
EED = EED (Homo sapiens, UniProt O75530); assay: EED TR-FRET Binding Assay (modified LanthaScreen competition assay)
Summary of the method: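 Competition binding in a modified LanthaScreen format, in 20 mM Tris-HCl pH 7.5, 200 mM NaCl, 0.01% Tween-20, 10 uM DTT and 0.05% BSA. Reactions ran 1 hour at 25° C before TR-FRET detection.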

[1] = tested on: H3K27me3 in OCILY19 cells; assay: H3K27me3 AlphaLISA assay in OCILY19 cells; assay type: cell-based; details: Homo sapiens, OCI-LY19, 144 h, 6 days with compound, read-out: OCILY-19 IC50
Procedure: (§1) 5,000 cells were plated into each well of 96-well Corning CellBing cell culture plates and incubated overnight at 37° C. in a humidified CO2 incubator. […] The cell culture plates were then incubated for 6 more days. H3K27me3 AlphaLISA assay was performed on the cell culture samples by using AlphaLISAR® H3K27me3 Cellular Detection Kit (PerkinElmer) and 96-well white half-area plates (PerkinElmer).

H3K27me3 in G401 cells = assay: H3K27me3 AlphaLISA assay in G401 cells; assay type: cell-based; details: Homo sapiens, G-401, 144 h, 6 days with compound
Procedure: as §1, with “G401 cells (ATCC catalog # CRL-1441) were maintained in McCoy's 5a medium (ATCC) supplemented with 10% heat-inactivated FBS (HyClone) at 37° C. in a humidified CO2 incubator. OCILY19 cells (DSMZ catalog #ACC 528) were maintained in IMDM (Invitrogen) supplemented with 10% human serum (Sigma) at 37° C. in a humidified CO2 incubator. 5,000” for “5,000”

Pfeiffer cells = assay: CTG cell viability assay (CellTiter-Glo); assay type: cell-based; details: Homo sapiens, 240 h; Pfeiffer cells, 10 days with compound, CellTiter-Glo; read-out: Cell Proliferation IC50
Procedure: 1,000 cells were plated into each well of 96-well Corning CellBing cell culture plates and incubated overnight at 37° C. in a humidified CO2 incubator. […] The cell culture plates were then incubated for 10 more days. CTG cell viability assay was performed on the cell culture samples by using CellTiter-Glo® Luminescent Cell Viability Assay Kit (Promega).

Chain of EED (O75530 whole entry): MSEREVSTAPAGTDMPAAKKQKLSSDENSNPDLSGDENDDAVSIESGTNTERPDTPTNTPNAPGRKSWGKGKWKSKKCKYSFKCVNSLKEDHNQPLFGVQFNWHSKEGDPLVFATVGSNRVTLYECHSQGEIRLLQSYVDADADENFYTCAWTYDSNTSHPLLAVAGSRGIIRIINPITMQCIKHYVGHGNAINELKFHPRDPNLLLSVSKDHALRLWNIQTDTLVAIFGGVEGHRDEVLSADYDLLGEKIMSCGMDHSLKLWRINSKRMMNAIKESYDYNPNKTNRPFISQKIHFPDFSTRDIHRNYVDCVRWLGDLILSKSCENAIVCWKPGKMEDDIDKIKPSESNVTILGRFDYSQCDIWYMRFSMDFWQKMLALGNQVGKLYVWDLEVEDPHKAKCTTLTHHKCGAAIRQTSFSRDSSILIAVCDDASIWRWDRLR

Row | SMILES | IC50 (EED) | IC50 [1] | IC50 (H3K27me3 in G401 cells) | IC50 (Pfeiffer cells)
1 | CN(C)[C@@H]1CN(C2CCc3cccc(F)c32)C[C@H]1c1ccc(-c2cnn(CC(N)=O)c2)nc1 (mixture of isomers) [Example 158, rac-2-(4-{5-[(3R,4S)-4-(dimethylamino)-1-(7-fluoro-2,3-dihydro-1H-inden-1-yl)pyrrolidin-3-yl]pyridin-2-yl}-1H-pyrazol-1-yl)acetamide] | 1.37 nM | 87.2 nM | 127 nM | 385 nM
2 | CN(C)[C@@H]1CN([C@@H]2CCc3cccc(F)c32)C[C@H]1c1ccc(C#N)cc1 (racemic) [Example 19, rac-4-{(3R,4S)-4-(dimethylamino)-1-[(1R)-7-fluoro-2,3-dihydro-1H-inden-1-yl]pyrrolidin-3-yl}benzonitrile] | 12.5 nM | 597 nM | 725 nM | 654 nM
3 | CN(C)[C@H]1CN(C2CCc3cccc(F)c32)C[C@@H]1c1cn(C)c2c(C(=O)N3CCNCC3)cccc12 (mixture of isomers) [Example 119, rac-{3-[(3S,4R)-4-(dimethylamino)-1-(7-fluoro-2,3-dihydro-1H-inden-1-yl)pyrrolidin-3-yl]-1-methyl-1H-indol-7-yl}(piperazin-1-yl)methanone] | 1.99 nM | 214 nM | 120 nM | 247 nM
4 | COc1ccc([C@@H]2CN(C3CCc4cccc(F)c43)C[C@H]2N(C)C)cc1OC (mixture of isomers) [Example 23, rac-(3S,4R)-4-(3,4-dimethoxyphenyl)-1-(7-fluoro-2,3-dihydro-1H-inden-1-yl)-N,N-dimethylpyrrolidin-3-amine] | 2.72 nM | 393 nM | 198 nM | 921 nM
5 | CN(C)C(=O)N1CCN(c2cccc3c([C@H]4CN(C5CCc6cccc(F)c65)C[C@@H]4N(C)C)cn(C)c23)CC1 (mixture of isomers) [Example 131, rac-4-{3-[(3S,4R)-4-(dimethylamino)-1-(7-fluoro-2,3-dihydro-1H-inden-1-yl)pyrrolidin-3-yl]-1-methyl-1H-indol-7-yl}-N,N-dimethylpiperazine-1-carboxamide] | 0.406 nM | 158 nM | 57.3 nM | 122 nM
6 | CN(C)[C@H]1CN(C2CCc3cccc(F)c32)C[C@@H]1C1CCN(c2ccc(C(N)=O)cn2)CC1 (mixture of isomers) [Example 167, rac-6-{4-[(3S,4R)-4-(dimethylamino)-1-(7-fluoro-2,3-dihydro-1H-inden-1-yl)pyrrolidin-3-yl]piperidin-1-yl}pyridine-3-carboxamide] | 0.399 nM | 267 nM | 131 nM | 143 nM
7 | CN(C)C(=O)N1CCN(c2ccc([C@H]3CN(C4CCc5cccc(F)c54)C[C@@H]3N(C)C)cc2)CC1 (mixture of isomers) [Example 63, rac-4-{4-[(3S,4R)-4-(dimethylamino)-1-(7-fluoro-2,3-dihydro-1H-inden-1-yl)pyrrolidin-3-yl]phenyl}-N,N-dimethylpiperazine-1-carboxamide] | 1.47 nM | 191 nM | 55.6 nM | 72.7 nM
8 | CNC(=O)Cn1cc(-c2ccc([C@H]3CN(C4CCc5cccc(F)c54)C[C@@H]3N(C)C)cc2)cn1 (mixture of isomers) [Example 72, rac-2-(4-{4-[(3S,4R)-4-(dimethylamino)-1-(7-fluoro-2,3-dihydro-1H-inden-1-yl)pyrrolidin-3-yl]phenyl}-1H-pyrazol-1-yl)-N-methylacetamide] | 0.923 nM | 132 nM | 39.9 nM | 121 nM

Further lines, with some results ahead:

Row | IC50 (EED) | IC50 [1] | IC50 (H3K27me3 in G401 cells) | SMILES | IC50 (Pfeiffer cells)
9 | 0.347 nM | 27.1 nM | 56.4 nM | CN(C)[C@H]1CN(C2CCc3cccc(F)c32)C[C@@H]1c1cn(C)c2c(C(=O)N3CC(O)C3)cccc12 (stereo partly drawn) [Example 105, {3-[(3S,4R)-4-(dimethylamino)-1-(7-fluoro-2,3-dihydro-1H-inden-1-yl)pyrrolidin-3-yl]-1-methyl-1H-indol-7-yl}(3-hydroxyazetidin-1-yl)methanone] | 39 nM
10 | 0.739 nM | 200 nM | 182 nM | CCS(=O)(=O)N1CCN(c2ccc([C@H]3CN(C4CCc5cccc(F)c54)C[C@@H]3N(C)C)cc2)CC1 (mixture of isomers) [Example 49, rac-(3R,4S)-4-{4-[4-(ethanesulfonyl)piperazin-1-yl]phenyl}-1-(7-fluoro-2,3-dihydro-1H-inden-1-yl)-N,N-dimethylpyrrolidin-3-amine] | 194 nM
11 | 1.06 nM | 152 nM | 190 nM | CN(C)[C@@H]1CN(C2CCc3cccc(F)c32)C[C@H]1c1ccc(N2CCN(C(=O)CS(N)(=O)=O)CC2)nc1 (mixture of isomers) [Example 160, rac-2-(4-{5-[(3R,4S)-4-(dimethylamino)-1-(7-fluoro-2,3-dihydro-1H-inden-1-yl)pyrrolidin-3-yl]pyridin-2-yl}piperazin-1-yl)-2-oxoethane-1-sulfonamide] | 301 nM
12 | 0.906 nM | 3170 nM | 2300 nM | CN(C)[C@@H]1CN(C2CCc3cccc(F)c32)C[C@H]1c1ccc(N2CCN(c3ccccn3)CC2)cc1 (mixture of isomers) [Example 75, rac-(3S,4R)-1-(7-fluoro-2,3-dihydro-1H-inden-1-yl)-N,N-dimethyl-4-{4-[4-(pyridin-2-yl)piperazin-1-yl]phenyl}pyrrolidin-3-amine] | 1760 nM
13 | 1.08 nM | 497 nM | 84 nM | CN(C)[C@H]1CN(C2CCc3cccc(F)c32)C[C@@H]1c1cn(C)c2cc(C(=O)N3CC(O)C3)ccc12 (mixture of isomers) [Example 107, rac-{3-[(3S,4R)-4-(dimethylamino)-1-(7-fluoro-2,3-dihydro-1H-inden-1-yl)pyrrolidin-3-yl]-1-methyl-1H-indol-6-yl}(3-hydroxyazetidin-1-yl)methanone] | 284 nM
14 | 0.669 nM | 571 nM | 151 nM | CNC(=O)Cn1cc(-c2ccc([C@@H]3CN(C4CCc5cccc(F)c54)C[C@H]3N(C)C)cn2)cn1 (mixture of isomers) [Example 161, rac-2-(4-{5-[(3R,4S)-4-(dimethylamino)-1-(7-fluoro-2,3-dihydro-1H-inden-1-yl)pyrrolidin-3-yl]pyridin-2-yl}-1H-pyrazol-1-yl)-N-methylacetamide] | 293 nM
15 | 0.494 nM | 461 nM | 291 nM | CN(C)[C@H]1CN(C2CCc3cccc(F)c32)C[C@@H]1c1cn(C)c2ncccc12 (mixture of isomers) [Example 164, rac-(3R,4S)-1-(7-fluoro-2,3-dihydro-1H-inden-1-yl)-N,N-dimethyl-4-(1-methyl-1H-pyrrolo[2,3-b]pyridin-3-yl)pyrrolidin-3-amine] | 148 nM
16 | 6.08 nM | 3120 nM | 3190 nM | CN(C)[C@@H]1CN(C2CCc3cccc(F)c32)C[C@H]1c1ccc(Cl)cc1 (mixture of isomers) [Example 7, rac-(3S,4R)-4-(4-chlorophenyl)-1-(7-fluoro-2,3-dihydro-1H-inden-1-yl)-N,N-dimethylpyrrolidin-3-amine] | 2340 nM
17 | 1.14 nM | 237 nM | 158 nM | CN(C)C(=O)Cn1cc(-c2ccc([C@@H]3CN(C4CCc5cccc(F)c54)C[C@H]3N(C)C)cn2)cn1 (mixture of isomers) [Example 159, rac-2-(4-{5-[(3R,4S)-4-(dimethylamino)-1-(7-fluoro-2,3-dihydro-1H-inden-1-yl)pyrrolidin-3-yl]pyridin-2-yl}-1H-pyrazol-1-yl)-N,N-dimethylacetamide] | 246 nM
